Experimental data as given in PubChem BioAssay AID248 (DTP/NCI, 2004).
“And” between values parts separate entries of the source, which are not always exact repeats. Equal entries are not always repeated. Inconclusive results and toxic doses are left out.

Tested on: L1210 leukemia ip in BDF1 mice, survival T/C
Test: NCI In Vivo Anticancer Drug Screen. Data for tumor model L1210 Leukemia (intraperitoneal) in B6D2F1 (BDF1) mice
Conditions: endpoint: mean survival time, higher = longer survival
In short: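 Read-out is survival time, reported as the treated-group measurement over the vehicle-control measurement.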

## O=NN(CCCl)C(=O)N[C@H]1CCCC[C@@H]1Cl
dose: 3.0 mg/kg/injection, schedule: Q## X024 (ip), vehicle: other
  T/C: 103 % of control
dose: 3.0 mg/kg/injection, schedule: Q## X024 (oral), vehicle: other
  T/C: 114 % of control
dose: 3.35 mg/kg/injection, schedule: Q01DX015 (ip), vehicle: other
  T/C: 116 % of control
dose: 5.0 mg/kg/injection, schedule: Q01DX015 (ip), vehicle: other
  T/C: 173 % of control
dose: 6.0 mg/kg/injection, schedule: Q01DX001 (oral), vehicle: other
  T/C: 116 % of control
dose: 6.0 mg/kg/injection, schedule: Q01DX001 (sc), vehicle: other
  T/C: 123 % of control
dose: 6.0 mg/kg/injection, schedule: Q## X008 (oral), vehicle: other
  T/C: 122 % of control
dose: 6.7 mg/kg/injection, schedule: Q02DX008 (ip), vehicle: other
  T/C: 162 % of control and 208 % of control
dose: 7.6 mg/kg/injection, schedule: Q01DX015 (ip), vehicle: other
  T/C: 277 % of control
dose: 7.62 mg/kg/injection, schedule: Q01DX015 (ip), vehicle: other
  T/C: 485 % of control
dose: 8.0 mg/kg/injection, schedule: Q01DX001 (ip), vehicle: carboxymethylcellulose (CMC)
  T/C: 119 % of control
dose: 10.2 mg/kg/injection, schedule: Q02DX008 (ip), vehicle: other
  T/C: 242 % of control and 558 % of control
dose: 11.4 mg/kg/injection, schedule: Q01DX015 (ip), vehicle: other
  T/C: 348 % of control and 478 % of control
dose: 12.0 mg/kg/injection, schedule: Q01DX001 (ip), vehicle: other
  T/C: 203 % of control
dose: 12.0 mg/kg/injection, schedule: Q## X008 (oral), vehicle: other
  T/C: 117 % of control
dose: 13.4 mg/kg/injection, schedule: Q## X004 (ip), vehicle: other
  T/C: 291 % of control and 500 % of control
dose: 13.75 mg/kg/injection, schedule: Q01DX001 (oral), vehicle: other
  T/C: 150 % of control and 164 % of control
dose: 13.75 mg/kg/injection, schedule: Q## X001 (oral), vehicle: other
  T/C: 200 % of control
dose: 15.0 mg/kg/injection, schedule: Q01DX001 (ip), vehicle: other
  T/C: 187 % of control
dose: 15.0 mg/kg/injection, schedule: Q01DX005 (ip), vehicle: other
  T/C: 476 % of control
dose: 15.0 mg/kg/injection, schedule: Q01DX009 (ip), vehicle: other
  T/C: 408 % of control
dose: 15.0 mg/kg/injection, schedule: Q01DX009 (sc), vehicle: other
  T/C: 365 % of control
dose: 15.0 mg/kg/injection, schedule: Q## X003 (ip), vehicle: other
  T/C: 476 % of control
dose: 15.24 mg/kg/injection, schedule: Q02DX008 (ip), vehicle: other
  T/C: 501 % of control
dose: 15.25 mg/kg/injection, schedule: Q01DX001 (ip), vehicle: other
  T/C: 323 % of control
dose: 15.25 mg/kg/injection, schedule: Q## X001 (ip), vehicle: other
  T/C: 156 % of control
dose: 16.0 mg/kg/injection, schedule: Q## X032 (ip), vehicle: other
  T/C: 209 % of control
dose: 17.0 mg/kg/injection, schedule: Q01DX015 (ip), vehicle: other
  T/C: 330 % of control and 527 % of control
dose: 18.0 mg/kg/injection, schedule: Q01DX001 (ip), vehicle: carboxymethylcellulose (CMC)
  T/C: 183 % of control
dose: 19.0 mg/kg/injection, schedule: Q01DX001 (ip), vehicle: carboxymethylcellulose (CMC)
  T/C: 160 % of control
dose: 20.4 mg/kg/injection, schedule: Q## X004 (ip), vehicle: other
  T/C: 590 % of control
dose: 22.8 mg/kg/injection, schedule: Q02DX008 (ip), vehicle: other
  T/C: 433 % of control and 545 % of control
dose: 24.0 mg/kg/injection, schedule: Q01DX001 (ip), vehicle: other
  T/C: 476 % of control
dose: 24.0 mg/kg/injection, schedule: Q01DX001 (oral), vehicle: other
  T/C: 275 % of control
dose: 24.0 mg/kg/injection, schedule: Q01DX001 (sc), vehicle: other
  T/C: 267 % of control
dose: 24.0 mg/kg/injection, schedule: Q## X008 (oral), vehicle: other
  T/C: 165 % of control
dose: 24.0 mg/kg/injection, schedule: Q## X024 (oral), vehicle: other
  T/C: 270 % of control
dose: 24.0 mg/kg/injection, schedule: Q## X032 (ip), vehicle: other
  T/C: 470 % of control
dose: 26.0 mg/kg/injection, schedule: Q01DX001 (ip), vehicle: carboxymethylcellulose (CMC)
  T/C: 209 % of control and 243 % of control
dose: 27.0 mg/kg/injection, schedule: Q01DX001 (ip), vehicle: other
  T/C: 409 % of control
dose: 27.5 mg/kg/injection, schedule: Q01DX001 (oral), vehicle: other
  T/C: 263 % of control and 297 % of control
dose: 27.5 mg/kg/injection, schedule: Q## X001 (oral), vehicle: other
  T/C: 438 % of control
dose: 28.0 mg/kg/injection, schedule: Q## X001 (oral), vehicle: other
  T/C: 340 % of control
dose: 30.0 mg/kg/injection, schedule: Q01DX005 (ip), vehicle: other
  T/C: 203 % of control
dose: 30.0 mg/kg/injection, schedule: Q01DX005 (oral), vehicle: other
  T/C: 255 % of control
dose: 30.0 mg/kg/injection, schedule: Q01DX009 (ip), vehicle: other
  T/C: 121 % of control
dose: 30.0 mg/kg/injection, schedule: Q01DX009 (sc), vehicle: other
  T/C: 200 % of control
dose: 30.0 mg/kg/injection, schedule: Q## X003 (ip), vehicle: other
  T/C: 357 % of control
dose: 30.0 mg/kg/injection, schedule: Q## X003 (oral), vehicle: other
  T/C: 452 % of control
dose: 30.5 mg/kg/injection, schedule: Q01DX001 (ip), vehicle: carboxymethylcellulose (CMC)
  T/C: 303 % of control
dose: 30.5 mg/kg/injection, schedule: Q01DX001 (ip), vehicle: other
  T/C: 186 % of control and 230 % of control
dose: 30.5 mg/kg/injection, schedule: Q## X001 (ip), vehicle: other
  T/C: 205 % of control
dose: 30.5 mg/kg/injection, schedule: Q## X004 (ip), vehicle: other
  T/C: 525 % of control
dose: 34.0 mg/kg/injection, schedule: Q02DX008 (ip), vehicle: other
  T/C: 285 % of control and 398 % of control
dose: 36.0 mg/kg/injection, schedule: Q01DX001 (ip), vehicle: carboxymethylcellulose (CMC)
  T/C: 259 % of control
dose: 40.0 mg/kg/injection, schedule: Q01DX001 (ip), vehicle: carboxymethylcellulose (CMC)
  T/C: 235 % of control and 238 % of control
dose: 41.0 mg/kg/injection, schedule: Q01DX001 (ip), vehicle: other
  T/C: 590 % of control
dose: 41.0 mg/kg/injection, schedule: Q## X001 (oral), vehicle: other
  T/C: 403 % of control
dose: 45.6 mg/kg/injection, schedule: Q## X004 (ip), vehicle: other
  T/C: 289 % of control and 481 % of control
dose: 46.0 mg/kg/injection, schedule: Q01DX001 (ip), vehicle: carboxymethylcellulose (CMC)
  T/C: 329 % of control
dose: 48.0 mg/kg/injection, schedule: Q01DX001 (ip), vehicle: other
  T/C: 384 % of control
dose: 48.0 mg/kg/injection, schedule: Q01DX001 (oral), vehicle: other
  T/C: 476 % of control
dose: 48.0 mg/kg/injection, schedule: Q01DX001 (sc), vehicle: other
  T/C: 382 % of control
dose: 48.0 mg/kg/injection, schedule: Q## X008 (oral), vehicle: other
  T/C: 471 % of control
dose: 48.0 mg/kg/injection, schedule: Q## X024 (oral), vehicle: other
  T/C: 448 % of control
dose: 54.4 mg/kg/injection, schedule: Q## X032 (ip), vehicle: other
  T/C: 377 % of control
dose: 55.0 mg/kg/injection, schedule: Q01DX001 (oral), vehicle: other
  T/C: 174 % of control and 245 % of control
dose: 55.0 mg/kg/injection, schedule: Q## X001 (oral), vehicle: other
  T/C: 204 % of control
dose: 60.0 mg/kg/injection, schedule: Q01DX001 (ip), vehicle: carboxymethylcellulose (CMC)
  T/C: 296 % of control and 304 % of control and 329 % of control
dose: 60.0 mg/kg/injection, schedule: Q01DX009 (sc), vehicle: other
  T/C: 95 % of control
dose: 60.0 mg/kg/injection, schedule: Q## X003 (ip), vehicle: other
  T/C: 105 % of control
dose: 61.0 mg/kg/injection, schedule: Q01DX001 (ip), vehicle: carboxymethylcellulose (CMC)
  T/C: 329 % of control
dose: 61.0 mg/kg/injection, schedule: Q## X001 (ip), vehicle: other
  T/C: 320 % of control and 527 % of control
dose: 68.0 mg/kg/injection, schedule: Q## X004 (ip), vehicle: other
  T/C: 180 % of control and 221 % of control
dose: 91.5 mg/kg/injection, schedule: Q01DX001 (ip), vehicle: carboxymethylcellulose (CMC)
  T/C: 164 % of control
dose: 91.5 mg/kg/injection, schedule: Q01DX001 (ip), vehicle: other
  T/C: 237 % of control and 491 % of control
dose: 93.0 mg/kg/injection, schedule: Q01DX001 (ip), vehicle: carboxymethylcellulose (CMC)
  T/C: 108 % of control
dose: 96.0 mg/kg/injection, schedule: Q01DX001 (ip), vehicle: other
  T/C: 96 % of control
dose: 96.0 mg/kg/injection, schedule: Q01DX001 (sc), vehicle: other
  T/C: 420 % of control
dose: 96.0 mg/kg/injection, schedule: Q## X008 (oral), vehicle: other
  T/C: 225 % of control
dose: 120.0 mg/kg/injection, schedule: Q## X003 (oral), vehicle: other
  T/C: 102 % of control
